One experiment has as its target T1, recombinant human PKM2 (Homo sapiens, UniProt P14618).
T1 construct: His (N); purchased R&D Systems
Nature of the experiment: Human PKM2 activation assay (Kinase-Glo Plus luminescent detection of generated ATP). The experiment is classed as biochemical. Particulars: for Emax: percentage activation normalised to DMSO vehicle (LOW) and 5 μM TEPP-46 (HIGH), read-out: hPKM2 Emax; for pEC50: recombinant human PKM2 activation, 4-parameter logistic fit, read-out: hPKM2 EC50. In a few lines:
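Luminescent ATP detection (Kinase-Glo Plus, 15 min, 26 °C) followed a 60 min, 26 °C shaken reaction of compound with […] His-tagged human PKM2, PEP and ADP in imidazole/KCl/MgCl2 buffer with Tween20 and BSA, pH 7.2.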
For orientation: Kinase-Glo measures the ATP left after a reaction by luminescence.

For a further experiment, the system named is A549 cells. Nature of the experiment: A549 cell proliferation in low-serine medium (CellTiter-Glo 2.0 viable cell number). It is filed as cell-based. Particulars: Homo sapiens, 72 h, 3 days, Assay Medium with 20 μM L-serine. How it is done:
The effect of compounds of Formula (Ia) on A549 cell proliferation in low-serine medium was assessed using a luminescence assay of viable cell number (CellTiter-Glo® 2.0, Promega) duplexed with a fluorescent cytotoxicity assessment (CelITox™ Green, Promega). Cell culture reagents were from ThermoFisher unless specified otherwise. Assay reagents were from Sigma-Aldrich unless specified otherwise. Test Compounds were prepared as 10 mM DMSO stocks and dilution series prepared in DMSO for direct dilution into culture medium.
Cells were passaged every 3-4 days at 80-90% confluence. The cell monolayer was washed twice with room-temperature Ca^2+/Mg-free PBS and 4 ml room-temperature trypsin-EDTA added to the flask. After 5 minutes' incubation (37° C., 5% CO2) to detach cells, trypsin was quenched with 13 ml warmed complete growth medium and the cells harvested and diluted to 2.4×10^4 cells/ml for dispensing into 384-well clear-bottom black-walled plates (600 cells/well).
Following overnight incubation, growth medium was aspirated from each well and the cells washed twice with Assay Medium comprising Basal Medium Eagle supplemented with 3% heat-inactivated dialysed FBS plus 2 mM L-glutamine plus 20 μM L-serine (Sigma-Aldrich). After aspiration of the final wash medium, Assay Medium containing Test Compound was added to each well. DMSO vehicle controls were included on each plate.
Cells were incubated for 3 days in a humidified incubator (37° C., 5% CO2) at which point CelITox™ Green and CellTiter-Glo® reagents were prepared according to the manufacturer's instructions. Triton-X was added to HIGH wells for cytotoxicity determination and the plate incubated for 30 minutes (20° C., ambient humidity and pCO2). CelITox™ Green reagent was added to each well and the plate covered, placed on an orbital shaker @450 rpm for 2 minutes, and incubated in the dark for 15 minutes (20° C., ambient humidity and pCO2). Endpoint fluorescence was measured using a plate reader (PHERAstar® FSX, BMG Labtech).
Following cytotoxicity determination, CellTiter-Glo® reagent was added to each well and the plate placed on an orbital shaker @450 rpm for 2 minutes to lyse cells. Plates were incubated in the dark for 15-30 minutes (20° C., ambient humidity and pCO2) prior to endpoint luminescence measurement (PHERAstar® FSX, BMG Labtech).
Proliferation was calculated by normalizing luminescence signals to LOW controls obtained from a parallel plate processed at the time of Test Compound challenge and HIGH (DMSO vehicle) wells from the compound plate. IC50 values were determined from a 4-parameter logistic fit of compound concentration-response curves.

SMILES strings stand for the structures. pEC50, pIC50: −log10 of the molar value.

T1 sequence (P14618 2-531 limits assumed): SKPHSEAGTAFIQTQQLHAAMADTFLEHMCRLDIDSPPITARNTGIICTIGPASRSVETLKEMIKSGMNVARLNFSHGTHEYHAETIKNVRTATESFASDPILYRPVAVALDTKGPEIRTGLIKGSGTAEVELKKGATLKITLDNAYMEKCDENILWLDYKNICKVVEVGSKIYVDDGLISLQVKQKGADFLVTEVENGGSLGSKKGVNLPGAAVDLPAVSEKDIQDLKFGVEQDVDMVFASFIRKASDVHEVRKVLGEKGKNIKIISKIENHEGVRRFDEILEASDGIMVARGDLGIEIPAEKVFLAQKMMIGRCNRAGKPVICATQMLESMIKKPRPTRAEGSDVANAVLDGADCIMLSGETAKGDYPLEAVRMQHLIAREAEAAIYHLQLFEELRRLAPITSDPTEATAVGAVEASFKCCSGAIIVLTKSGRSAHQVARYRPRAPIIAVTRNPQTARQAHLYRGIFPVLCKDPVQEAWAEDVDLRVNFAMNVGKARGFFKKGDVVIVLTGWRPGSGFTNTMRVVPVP

With `NC(=O)c1c[nH]nc1Cn1ncc2cc(S(=O)(=O)c3ccccc3)ccc2c1=O` [Example 15, 3-((1-oxo-6-(phenylsulfonyl)phthalazin-2(1H)-yl)methyl)-1H-pyrazole-4-carboxamide], at recombinant human PKM2, the Emax (in general, the maximal effect, on the per cent scale that the assay sets) was 124% and the pEC50 (commonly the EC50 on a negative log10 scale, so that one unit is a factor of ten) is 6.61. Further, the pIC50 (as a rule, the negative decadic logarithm of the IC50, by convention in mol/L) with A549 cells is 7.80.
On the same counts, the results for `CNC(=O)c1occc1Cn1ncc2cc(S(=O)(=O)c3ccc(OC)cc3)ccc2c1=O` [Example 17, 3-((6-((4-methoxyphenyl)sulfonyl)-1-oxophthalazin-2(1H)-yl)methyl)-N-methylfuran-2-carboxamide] are 54.9%, 6.95 and 8.54.
Regarding `O=c1c2ccc(S(=O)(=O)c3ccccc3)cc2cnn1C(CO)c1ccccc1` (stereo not drawn) [Example 19, 2-(2-hydroxy-1-phenylethyl)-6-(phenylsulfonyl)phthalazin-1(2H)-one], at recombinant human PKM2, the Emax was found to be 65.3% and the pEC50 was 6.88. The molecule further had a pIC50 with A549 cells of 8.38.
On the same counts, the results for `O=c1c2ccc(S(=O)(=O)c3ccccc3)cc2cnn1Cc1ccccc1CO` [Example 20, 2-(2-(hydroxymethyl)benzyl)-6-(phenylsulfonyl)phthalazin-1(2H)-one] are 90.7%, 6.60 and 8.19.
On the same counts, the results for `O=c1c2ccc(S(=O)(=O)c3ccccc3)cc2cnn1Cc1ccc(OCCO)nc1` [Example 21, 2-((6-(2-hydroxyethoxy)pyridin-3-yl)methyl)-6-(phenylsulfonyl)phthalazin-1(2H)-one] are 102%, 6.88 and 7.92.
Consider `COc1ccc(S(=O)(=O)c2ccc3c(=O)n(Cc4ccn(CCO)n4)ncc3c2)cc1` [Example 24, 2-((1-(2-hydroxyethyl)-1H-pyrazol-3-yl)methyl)-6-((4-methoxyphenyl)sulfonyl)phthalazin-1(2H)-one], for which, at recombinant human PKM2, the Emax was 123% and the pEC50 is 6.97. In the experiment on A549 cells, this molecule showed a pIC50 of 8.52.
Regarding `O=c1c2ccc(S(=O)(=O)c3ccccc3)cc2cnn1Cc1ccc2c(c1)OCCO2` [Example 29, 2-((2,3-dihydrobenzo[b][1,4]dioxin-6-yl)methyl)-6-(phenylsulfonyl)phthalazin-1(2H)-one], at recombinant human PKM2, the Emax was found to be 85% and the pEC50 is 7.47. The pIC50 in the experiment on A549 cells is 9.10.
On the same counts, the results for `Cc1ncc(Cn2ncc3cc(S(=O)(=O)c4ccccc4)ccc3c2=O)s1` [Example 30, 2-((2-methylthiazol-5-yl)methyl)-6-(phenylsulfonyl)phthalazin-1(2H)-one] are 99.4%, 6.13 and 7.80.
On to `COc1cncc(Cn2ncc3cc(S(=O)(=O)c4ccccc4)ccc3c2=O)c1` [Example 31, 2-((5-methoxypyridin-3-yl)methyl)-6-(phenylsulfonyl)phthalazin-1(2H)-one], for which, on recombinant human PKM2, the Emax is 74.9% and the pEC50 was 6.09. Besides, the pIC50 in the experiment on A549 cells was 7.38.
On the same counts, the results for `O=c1c2ccc(S(=O)(=O)c3ccccc3)cc2cnn1Cc1ccccc1F` [Example 32, 2-(2-fluorobenzyl)-6-(phenylsulfonyl)phthalazin-1(2H)-one] are 99.6%, 6.79 and 8.49.
On the same counts, the results for `COc1ccc(F)c(Cn2ncc3cc(S(=O)(=O)c4ccccc4)ccc3c2=O)c1` [Example 33, 2-(2-fluoro-5-methoxybenzyl)-6-(phenylsulfonyl)phthalazin-1(2H)-one] are 105%, 7.20 and 8.77.
On the same counts, the results for `O=c1c2ccc(S(=O)(=O)c3ccccc3)cc2cnn1Cc1cccc2nccn12` [Example 34, 2-(imidazo[1,2-a]pyridin-5-ylmethyl)-6-(phenylsulfonyl)phthalazin-1(2H)-one] are 79%, 6.30 and 7.19.
Take `CC1(C)Cc2cc(Cn3ncc4cc(S(=O)(=O)c5ccccc5)ccc4c3=O)ccc2O1` [Example 35, 2-((2,2-dimethyl-2,3-dihydrobenzofuran-5-yl)methyl)-6-(phenylsulfonyl)phthalazin-1(2H)-one]: at recombinant human PKM2, the Emax stood at 110% and the pEC50 is 6.74. For the same molecule, the pIC50 in the experiment on A549 cells is 7.98.
Regarding `Cn1ncc2cc(Cn3ncc4cc(S(=O)(=O)c5ccccc5)ccc4c3=O)ccc21` [Example 36, 2-((1-methyl-1H-indazol-5-yl)methyl)-6-(phenylsulfonyl)phthalazin-1(2H)-], at recombinant human PKM2, the Emax came to 70% and the pEC50 is 6.69. Besides, in the experiment on A549 cells, the pIC50 was 7.69.
On the same counts, the results for `COc1cccc(Cn2ncc3cc(S(=O)(=O)c4ccccc4)ccc3c2=O)n1` [Example 37, 2-((6-methoxypyridin-2-yl)methyl)-6-(phenylsulfonyl)phthalazin-1(2H)-one] are 118%, 6.88 and 8.44.
Regarding `Cn1ncc2ccc(Cn3ncc4cc(S(=O)(=O)c5ccccc5)ccc4c3=O)cc21` [Example 39, 2-((1-methyl-1H-indazol-6-yl)methyl)-6-(phenylsulfonyl)phthalazin-1(2H)-one], at recombinant human PKM2, the Emax was found to be 71.9% and the pEC50 is 6.82. This molecule also gave a pIC50 in the experiment with A549 cells of 8.13.
On the same counts, the results for `COc1ccc(S(=O)(=O)c2ccc3c(=O)n(Cc4cccc(OC(F)F)c4)ncc3c2)cc1` [Example 40, 2-(3-(difluoromethoxy)benzyl)-6-((4-methoxyphenyl)sulfonyl)phthalazin-1(2H)-one] are 90%, 7.37 and 8.43.
On the same counts, the results for `COc1ccc(S(=O)(=O)c2ccc3c(=O)n(Cc4cccnc4)ncc3c2)cc1` [Example 42, 6-((4-methoxyphenyl)sulfonyl)-2-(pyridin-3-ylmethyl)phthalazin-1(2H)-one] are 103%, 7.19 and 8.82.
On the same counts, the results for `COc1ccc(S(=O)(=O)c2ccc3c(=O)n(Cc4ccccc4N)ncc3c2)cc1` [Example 43, 2-(2-aminobenzyl)-6-((4-methoxyphenyl)sulfonyl)phthalazin-1(2H)-one] are 111%, 7.37 and 8.77.
Consider `COc1ccc(S(=O)(=O)c2ccc3c(=O)n(CCc4ccccc4)ncc3c2)cc1` [Example 44, 6-((4-methoxyphenyl)sulfonyl)-2-phenethylphthalazin-1(2H)-one], for which, on recombinant human PKM2, the Emax was found to be 63% and the pEC50 is 6.44. This molecule showed a pIC50 with A549 cells of 7.38.
On the same counts, the results for `COc1ccc(S(=O)(=O)c2ccc3c(=O)n(Cc4ccno4)ncc3c2)cc1` [Example 45, 2-(isoxazol-5-ylmethyl)-6-((4-methoxyphenyl)sulfonyl)phthalazin-1(2H)-one] are 83.5%, 6.36 and 7.58.
As for `COc1ccc(S(=O)(=O)c2ccc3c(=O)n(Cc4ccc(Cl)cc4F)ncc3c2)cc1` [Example 46, 2-(4-chloro-2-fluorobenzyl)-6-((4-methoxyphenyl)sulfonyl)phthalazin-1(2H)-one], at recombinant human PKM2, the Emax stood at 76% and the pEC50 is 6.63. This molecule had a pIC50 in the experiment on A549 cells of 8.32.

For the origin of these results see patent US20260152487A1 (Sitryx Therapeutics Limited, priority 2021, published 2026).
